From article PMC8364686, “Safety, tolerability, pharmacokinetics and pharmacodynamics of single oral doses of BI 187004, an inhibitor of 11beta-hydroxysteroid dehydrogenase-1, in healthy male volunteers with overweight or obesity” (Clinical Diabetes and Endocrinology, 2021)
Where “and” joins values, the source holds several entries; their conditions need not be identical. Equal entries are not always repeated. Entries after “also recorded” stand apart in the source; their conditions may differ.

Tests used:
[1] = test system: hypothalamus–pituitary–adrenal axis hormones; assay: Hormones of the HPA axis: difference from baseline; format: in vivo, human
Procedure: (§1) Safety and tolerability of BI 187004 were assessed in a descriptive way using the following investigations: recording of adverse events, clinical laboratory parameters (haematology, coagulation, enzymes, substrates, electrolytes, hormones, and urinalysis), vital signs (blood pressure, puls rate), 12-lead ECG (electrocardiogram) with special attention to QTc prolongation, and physical examination (occurrence of findings).

[2] = test system: healthy male volunteers with overweight or obesity; assay: Safety and tolerability (adverse events, clinical laboratory, vital signs, ECG); format: in vivo, human
Procedure: as §1

[3] = test system: HPA axis; assay: Total urinary corticosteroid excretion (aTHF + THF + UFF + UFE + THE); settings: for Total corticosteroids 0 – 24h (day 1) gMean (gCV [%]) / Total corticosteroids % of baseline 0 – 24h (day 1)/-24 – 0h (day -1) gMean (gCV): urine; for Total corticosteroids placebo corrected % change from baseline, adjusted gMean (90% CI) / Total corticosteroids placebo corrected % of baseline, adjusted gMean (90% CI): urine 0–24 h, ANCOVA
Procedure: The urinary samples for determination of urinary free cortisol (UFF), urinary free cortisone (UFE), urinary total cortisol (UTF), urinary total cortisone (UTE), and their metabolites 5alpha- or allo-tetrahydrocortisol (aTHF), 5beta-tetrahydrocortisol (THF), and tetrahydrocortisone (THE) were analyzed using a validated LC–MS/MS method.
The placebo corrected percentage change from baseline of the data shown in Supplementary Table 1 and 2 was analyzed statistically by an ANCOVA model with baseline as covariate on the logarithmic scale.

Compound: N#Cc1ccc2c(c1)[C@H]1CCCN(C(=O)c3ccc4[nH]cnc4c3)[C@H]1C2 [BI 187004]
- SHBG mean difference from baseline ([1]; 160 mg single oral dose, 24:00): 1.9 nmol/L
- Total Testosterone mean difference from baseline ([1]; 160 mg single oral dose, 24:00): 1.0 nmol/L
- ACTH mean difference from baseline ([1]; 160 mg single oral dose, 96:00): 0.05 pmol/L
- Androstenedione mean difference from baseline ([1]; 160 mg single oral dose, 96:00): 1.5 nmol/L
- Cortisol mean difference from baseline ([1]; 160 mg single oral dose, 96:00): -69.9 nmol/L
- DHEA-s mean difference from baseline ([1]; 160 mg single oral dose, 96:00): 2.2 µmol/L
- SHBG mean difference from baseline ([1]; 160 mg single oral dose, 96:00): -0.8 nmol/L
- Total Testosterone mean difference from baseline ([1]; 160 mg single oral dose, 96:00): 2.4 nmol/L
- ACTH mean difference from baseline ([1]; 240 mg single oral dose, 24:00): 0.87 pmol/L
- Androstenedione mean difference from baseline ([1]; 240 mg single oral dose, 24:00): 5.0 nmol/L
- Cortisol mean difference from baseline ([1]; 240 mg single oral dose, 24:00): -7.3 nmol/L
- DHEA-s mean difference from baseline ([1]; 240 mg single oral dose, 24:00): 1.6 µmol/L
- SHBG mean difference from baseline ([1]; 240 mg single oral dose, 24:00): 2.3 nmol/L
- Total Testosterone mean difference from baseline ([1]; 240 mg single oral dose, 24:00): -2.8 nmol/L
- ACTH mean difference from baseline ([1]; 240 mg single oral dose, 96:00): -0.27 pmol/L
- Androstenedione mean difference from baseline ([1]; 240 mg single oral dose, 96:00): 2.7 nmol/L
- Cortisol mean difference from baseline ([1]; 240 mg single oral dose, 96:00): -5.1 nmol/L
- DHEA-s mean difference from baseline ([1]; 240 mg single oral dose, 96:00): 2.3 µmol/L
- SHBG mean difference from baseline ([1]; 240 mg single oral dose, 96:00): 2.5 nmol/L
- Total Testosterone mean difference from baseline ([1]; 240 mg single oral dose, 96:00): -2.4 nmol/L
- ACTH mean difference from baseline ([1]; 360 mg single oral dose, 24:00): 1.30 pmol/L
- Androstenedione mean difference from baseline ([1]; 360 mg single oral dose, 24:00): 3.2 nmol/L
- Cortisol mean difference from baseline ([1]; 360 mg single oral dose, 24:00): -40.0 nmol/L
- DHEA-s mean difference from baseline ([1]; 360 mg single oral dose, 24:00): 1.2 µmol/L
- SHBG mean difference from baseline ([1]; 360 mg single oral dose, 24:00): 0.9 nmol/L
- Total Testosterone mean difference from baseline ([1]; 360 mg single oral dose, 24:00): -0.3 nmol/L
- ACTH mean difference from baseline ([1]; 360 mg single oral dose, 96:00): 0.38 pmol/L
- Androstenedione mean difference from baseline ([1]; 360 mg single oral dose, 96:00): -0.3 nmol/L
- Cortisol mean difference from baseline ([1]; 360 mg single oral dose, 96:00): -132.9 nmol/L
- DHEA-s mean difference from baseline ([1]; 360 mg single oral dose, 96:00): 1.6 µmol/L
- SHBG mean difference from baseline ([1]; 360 mg single oral dose, 96:00): -2.2 nmol/L
- Total Testosterone mean difference from baseline ([1]; 360 mg single oral dose, 96:00): 0.7 nmol/L
- Incidence of headache ([2]; 3 out of 54 subjects receiving BI 187004): 5.6%
- Incidence of drug-related adverse events ([2]; all 9 BI 187004 dose groups (9 subjects)): 16.7%
- Subjects reporting at least 1 adverse event ([2]; all BI 187004 dose groups (15 subjects)): 27.8%
- Clinical laboratory evaluations, vital signs, ECG findings ([2]; single oral doses 2.5–360 mg): No clinically relevant deviations; also recorded: no notable findings
- Deaths, AEs leading to discontinuation, serious AEs ([2]; single oral doses 2.5–360 mg): no serious AEs
- Hypoglycemic episodes ([2]; single oral doses 2.5–360 mg): No hypoglycemic episodes
- Safety and tolerability ([2]; single oral doses 2.5–360 mg): well tolerated and safe; also recorded: safe and well tolerated
- Total corticosteroids 0 – 24h (day 1) gMean (gCV [%]) ([3]; 2.5 mg): 16067.0 (18.128) μg
- Total corticosteroids % of baseline 0 – 24h (day 1)/-24 – 0h (day -1) gMean (gCV) ([3]; 2.5 mg): 161.3 (44.4) %
- Total corticosteroids placebo corrected % change from baseline, adjusted gMean (90% CI) ([3]; 2.5 mg): 30.3 (11.5, 52.2) 0.0062%
- Total corticosteroids placebo corrected % of baseline, adjusted gMean (90% CI) ([3]; 2.5 mg): 130.3% and 130.3 (111.5, 152.2) %
- Total corticosteroids 0 – 24h (day 1) gMean (gCV [%]) ([3]; 5 mg): 24324.0 (23.620) μg
- Total corticosteroids % of baseline 0 – 24h (day 1)/-24 – 0h (day -1) gMean (gCV) ([3]; 5 mg): 179.9 (21.8) %
- Total corticosteroids placebo corrected % change from baseline, adjusted gMean (90% CI) ([3]; 5 mg): 72.1 (47.7, 100.6) <0.0001%
- Total corticosteroids placebo corrected % of baseline, adjusted gMean (90% CI) ([3]; 5 mg): 172.1 (147.7, 200.6) %
- Total corticosteroids 0 – 24h (day 1) gMean (gCV [%]) ([3]; 10 mg): 23965.4 (24.142) μg
- Total corticosteroids % of baseline 0 – 24h (day 1)/-24 – 0h (day -1) gMean (gCV) ([3]; 10 mg): 178.1 (24.5) %
- Total corticosteroids placebo corrected % change from baseline, adjusted gMean (90% CI) ([3]; 10 mg): 69.9 (45.8, 98.1) <0.0001%
- Total corticosteroids placebo corrected % of baseline, adjusted gMean (90% CI) ([3]; 10 mg): 169.9 (145.8, 198.1) %
- Total corticosteroids 0 – 24h (day 1) gMean (gCV [%]) ([3]; 20 mg): 27240.6 (5.276) μg
- Total corticosteroids % of baseline 0 – 24h (day 1)/-24 – 0h (day -1) gMean (gCV) ([3]; 20 mg): 174.7 (31.3) %
- Total corticosteroids placebo corrected % change from baseline, adjusted gMean (90% CI) ([3]; 20 mg): 80.9 (54.9, 111.2) <0.0001%
- Total corticosteroids placebo corrected % of baseline, adjusted gMean (90% CI) ([3]; 20 mg): 180.9 (154.9, 211.2) %
- Total corticosteroids 0 – 24h (day 1) gMean (gCV [%]) ([3]; 40 mg): 24484.7 (17.661) μg
- Total corticosteroids % of baseline 0 – 24h (day 1)/-24 – 0h (day -1) gMean (gCV) ([3]; 40 mg): 213.9 (24.4) %
- Total corticosteroids placebo corrected % change from baseline, adjusted gMean (90% CI) ([3]; 40 mg): 86.6 (60.0, 117.5) <0.0001%
- Total corticosteroids placebo corrected % of baseline, adjusted gMean (90% CI) ([3]; 40 mg): 186.6 (160.0, 217.5) %
- Total corticosteroids 0 – 24h (day 1) gMean (gCV [%]) ([3]; 80 mg): 29884.0 (24.608) μg
- Total corticosteroids % of baseline 0 – 24h (day 1)/-24 – 0h (day -1) gMean (gCV) ([3]; 80 mg): 189.7 (16.0) %
- Total corticosteroids placebo corrected % change from baseline, adjusted gMean (90% CI) ([3]; 80 mg): 97.5 (69.1, 130.7) <0.0001%
- Total corticosteroids placebo corrected % of baseline, adjusted gMean (90% CI) ([3]; 80 mg): 197.5% and 197.5 (169.1, 230.7) %
- Total corticosteroids 0 – 24h (day 1) gMean (gCV [%]) ([3]; 160 mg): 25409.0 (28.223) μg
- Total corticosteroids % of baseline 0 – 24h (day 1)/-24 – 0h (day -1) gMean (gCV) ([3]; 160 mg): 171.9 (13.1) %
- Total corticosteroids placebo corrected % change from baseline, adjusted gMean (90% CI) ([3]; 160 mg): 72.8 (48.1, 101.6) <0.0001%
- Total corticosteroids placebo corrected % of baseline, adjusted gMean (90% CI) ([3]; 160 mg): 172.8 (148.1, 201.6) %
- Total corticosteroids 0 – 24h (day 1) gMean (gCV [%]) ([3]; 240 mg): 26872.4 (19.594) μg
- Total corticosteroids % of baseline 0 – 24h (day 1)/-24 – 0h (day -1) gMean (gCV) ([3]; 240 mg): 174.5 (17.4) %
- Total corticosteroids placebo corrected % change from baseline, adjusted gMean (90% CI) ([3]; 240 mg): 79.4 (53.7, 109.5) <0.0001%
- Total corticosteroids placebo corrected % of baseline, adjusted gMean (90% CI) ([3]; 240 mg): 179.4 (153.7, 209.5) %
- Total corticosteroids 0 – 24h (day 1) gMean (gCV [%]) ([3]; 360 mg): 26152.2 (30.046) μg
- Total corticosteroids % of baseline 0 – 24h (day 1)/-24 – 0h (day -1) gMean (gCV) ([3]; 360 mg): 168.0 (28.0) %
- Total corticosteroids placebo corrected % change from baseline, adjusted gMean (90% CI) ([3]; 360 mg): 73.8 (48.8, 102.9) <0.0001%
- Total corticosteroids placebo corrected % of baseline, adjusted gMean (90% CI) ([3]; 360 mg): 173.8 (148.8, 202.9) %
- Total urinary corticosteroid excretion (sum of UFF, UFE, aTHF, THF and THE), maximum across doses ([3]; placebo corrected % of baseline): up to 197.5%
